Measured values as given in patent US20250171426A1, “PYRIMIDINEDIONE-BASED COMPOUNDS AS AXL, C-MET, AND MER INHIBITORS AND METHODS OF USE THEREOF” (CMG Pharmaceutical Co., Ltd., priority 2022, published 2025).

Key:
Assay type in all cases: biochemical
Details in all cases: 10 μM ATP, 60 min, ADP-GLO luminescence
AXL = biological target: T1, AXL (Homo sapiens, UniProt P30530); assay: Enzymatic assay (ADP-Glo kinase reaction), AXL
T1 sequence (P30530 26-894): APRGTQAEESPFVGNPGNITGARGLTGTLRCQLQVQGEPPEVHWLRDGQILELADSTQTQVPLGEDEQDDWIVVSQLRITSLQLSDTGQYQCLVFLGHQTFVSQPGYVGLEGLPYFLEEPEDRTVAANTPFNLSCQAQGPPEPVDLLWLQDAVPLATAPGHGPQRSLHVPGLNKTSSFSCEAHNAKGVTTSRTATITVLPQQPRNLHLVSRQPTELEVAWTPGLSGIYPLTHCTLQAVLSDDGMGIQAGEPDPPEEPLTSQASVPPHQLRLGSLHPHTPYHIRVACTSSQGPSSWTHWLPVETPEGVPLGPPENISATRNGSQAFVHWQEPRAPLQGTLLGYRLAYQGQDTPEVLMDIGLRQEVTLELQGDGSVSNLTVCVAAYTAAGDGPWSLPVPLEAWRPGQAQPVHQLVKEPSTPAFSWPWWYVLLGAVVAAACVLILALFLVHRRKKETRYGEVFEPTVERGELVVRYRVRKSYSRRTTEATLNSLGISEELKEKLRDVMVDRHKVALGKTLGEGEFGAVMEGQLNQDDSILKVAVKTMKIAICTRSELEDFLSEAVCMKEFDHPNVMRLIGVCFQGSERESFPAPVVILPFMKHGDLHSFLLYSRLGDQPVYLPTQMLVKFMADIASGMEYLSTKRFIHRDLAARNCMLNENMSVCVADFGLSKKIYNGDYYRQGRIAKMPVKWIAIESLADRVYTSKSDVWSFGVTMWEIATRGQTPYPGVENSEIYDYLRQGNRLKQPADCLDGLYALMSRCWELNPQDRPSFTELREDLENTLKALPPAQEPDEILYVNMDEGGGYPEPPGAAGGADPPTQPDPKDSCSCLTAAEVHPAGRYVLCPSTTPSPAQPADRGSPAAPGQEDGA
Procedure: (§1) All the kinase reactions were performed in 5 μL using tyrosine kinase buffer with 0.2 μg/μL poly (Glu4, Tyr1) substrate, 10 μM ATP, serial dilution of the inhibitor, and incubated at room temperature for 60 min. After the indicated incubation times, 5 μL ADP-GLO™ reagent (Promega, Madison, WI) was added to the reactions and the plate was incubated at room temperature for 40 min. […] All 384-well assay plates were read using a GLOMAX™ Discover Microplate Luminometer from Promega (Madison, WI). To plot, analyze the data and calculate all kinase reaction biochemical values, both Microsoft Excel and Prism from GraphPad 7 Software (La Jolla, CA) were used.

c-MET = c-MET (Homo sapiens, UniProt P08581); assay: Enzymatic assay (ADP-Glo kinase reaction), c-MET
Chain of c-MET (P08581 25-1390): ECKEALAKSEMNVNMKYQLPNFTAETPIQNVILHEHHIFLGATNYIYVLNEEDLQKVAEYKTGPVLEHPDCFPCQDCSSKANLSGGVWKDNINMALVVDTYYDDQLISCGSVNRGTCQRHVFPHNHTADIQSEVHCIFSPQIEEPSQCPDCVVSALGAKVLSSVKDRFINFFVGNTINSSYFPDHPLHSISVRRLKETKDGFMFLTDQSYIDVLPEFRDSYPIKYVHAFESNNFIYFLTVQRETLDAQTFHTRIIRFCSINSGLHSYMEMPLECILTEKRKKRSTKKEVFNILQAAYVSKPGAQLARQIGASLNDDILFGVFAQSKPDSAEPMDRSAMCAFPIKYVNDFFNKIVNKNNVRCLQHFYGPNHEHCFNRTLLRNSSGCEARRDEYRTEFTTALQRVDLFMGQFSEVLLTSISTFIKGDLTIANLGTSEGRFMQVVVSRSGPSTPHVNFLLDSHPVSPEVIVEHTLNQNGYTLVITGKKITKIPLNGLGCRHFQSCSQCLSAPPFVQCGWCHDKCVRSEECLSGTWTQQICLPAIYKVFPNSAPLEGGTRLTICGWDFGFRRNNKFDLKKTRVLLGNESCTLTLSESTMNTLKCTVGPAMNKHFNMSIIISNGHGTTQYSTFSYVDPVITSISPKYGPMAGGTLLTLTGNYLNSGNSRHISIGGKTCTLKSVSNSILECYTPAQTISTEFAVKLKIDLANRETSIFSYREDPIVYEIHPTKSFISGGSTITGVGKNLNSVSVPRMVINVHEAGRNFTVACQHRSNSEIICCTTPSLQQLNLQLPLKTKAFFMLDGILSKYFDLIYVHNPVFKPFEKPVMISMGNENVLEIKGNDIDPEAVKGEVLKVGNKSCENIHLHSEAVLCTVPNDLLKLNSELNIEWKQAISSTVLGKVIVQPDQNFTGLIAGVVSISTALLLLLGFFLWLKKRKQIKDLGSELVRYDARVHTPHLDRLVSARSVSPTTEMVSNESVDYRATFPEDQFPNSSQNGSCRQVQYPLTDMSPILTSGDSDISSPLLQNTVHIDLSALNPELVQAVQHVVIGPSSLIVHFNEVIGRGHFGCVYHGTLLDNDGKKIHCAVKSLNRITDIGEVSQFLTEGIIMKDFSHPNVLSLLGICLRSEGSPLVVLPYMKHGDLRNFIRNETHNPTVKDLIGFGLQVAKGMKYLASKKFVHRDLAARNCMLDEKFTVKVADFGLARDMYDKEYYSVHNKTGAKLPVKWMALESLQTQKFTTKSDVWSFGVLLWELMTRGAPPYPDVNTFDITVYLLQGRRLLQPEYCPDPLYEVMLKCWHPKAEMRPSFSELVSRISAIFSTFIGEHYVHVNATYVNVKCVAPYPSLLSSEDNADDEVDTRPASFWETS
Procedure: as §1

MER = biological target: T2, MER (Homo sapiens, UniProt Q12866); assay: Enzymatic assay (ADP-Glo kinase reaction), MER
T2 sequence (Q12866 21-999): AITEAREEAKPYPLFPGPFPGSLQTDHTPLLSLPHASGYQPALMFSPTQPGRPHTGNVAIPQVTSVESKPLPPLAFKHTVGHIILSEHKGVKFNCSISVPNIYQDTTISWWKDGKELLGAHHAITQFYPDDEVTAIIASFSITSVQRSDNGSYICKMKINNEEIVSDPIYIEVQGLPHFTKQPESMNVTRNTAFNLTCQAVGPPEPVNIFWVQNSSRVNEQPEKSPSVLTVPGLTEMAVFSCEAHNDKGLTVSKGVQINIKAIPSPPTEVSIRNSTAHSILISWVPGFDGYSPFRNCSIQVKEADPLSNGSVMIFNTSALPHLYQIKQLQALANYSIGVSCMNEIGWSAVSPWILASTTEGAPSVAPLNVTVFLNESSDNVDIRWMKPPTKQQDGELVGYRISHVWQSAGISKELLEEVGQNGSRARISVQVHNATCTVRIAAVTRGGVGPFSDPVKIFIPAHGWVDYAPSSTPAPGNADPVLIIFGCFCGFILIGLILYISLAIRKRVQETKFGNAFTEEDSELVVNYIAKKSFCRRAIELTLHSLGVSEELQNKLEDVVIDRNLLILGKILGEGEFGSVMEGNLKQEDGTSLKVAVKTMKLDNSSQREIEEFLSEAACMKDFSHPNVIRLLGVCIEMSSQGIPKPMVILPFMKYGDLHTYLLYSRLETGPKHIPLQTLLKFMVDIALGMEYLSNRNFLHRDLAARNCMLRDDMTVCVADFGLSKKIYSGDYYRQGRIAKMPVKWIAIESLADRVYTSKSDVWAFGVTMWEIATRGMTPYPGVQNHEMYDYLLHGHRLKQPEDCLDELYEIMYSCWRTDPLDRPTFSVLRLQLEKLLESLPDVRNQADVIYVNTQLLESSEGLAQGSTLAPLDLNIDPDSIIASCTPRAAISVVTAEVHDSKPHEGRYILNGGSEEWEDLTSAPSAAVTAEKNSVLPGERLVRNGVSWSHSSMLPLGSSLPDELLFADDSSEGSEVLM
Procedure: (§2) All the kinase reactions were performed in 5 μL using tyrosine kinase buffer with 0.2 μg/μL poly (Glu4, Tyr1) substrate, 10 μM ATP, serial dilution of the inhibitor, and incubated at room temperature for 60 min. After the indicated incubation times, 5 μL ADP-GLO™ reagent (Promega, Madison, WI) was added to the reactions and the plate was incubated at room temperature for 40 min. Then, 10 μL of kinase detection reagent was added and after an incubation time of 40 min, luminescence was recorded and IC50 values were determined (Table 1). All 384-well assay plates were read using a GLOMAX™ Discover Microplate Luminometer from Promega (Madison, WI). To plot, analyze the data and calculate all kinase reaction biochemical values, both Microsoft Excel and Prism from GraphPad 7 Software (La Jolla, CA) were used.
as §2, with “3).” for “1).”

`Nc1nccc(Oc2ccc(NC(=O)c3cn(C4CCOCC4)c(=O)n(-c4ccc(F)cc4)c3=O)cc2F)c1C#CCN1CCOCC1` [Example 56, N-(4-(2-amino-3-(3-morpholinoprop-1-ynyl)pyridin-4-yloxy)-3-fluorophenyl)-3-(4-fluorophenyl)-2,4-dioxo-1-(tetrahydro-2H-pyran-4-yl)-1,2,3,4-tetrahydropyrimidine-5-carboxamide] was tested, and the IC50 (AXL) was under 100 nM, the IC50 (c-MET) was under 100 nM and the IC50 (MER) was under 100 nM.

`CN(C)C(=O)Cn1cc(C(=O)Nc2ccc(Oc3ccnc(N)c3C#CCC3CCNCC3)c(F)c2)c(=O)n(-c2ccc(F)cc2)c1=O` [Example 38, N-(4-((2-amino-3-(3-(piperidin-4-yl)prop-1-yn-1-yl)pyridin-4-yl)oxy)-3-fluorophenyl)-1-(2-(dimethylamino)-2-oxoethyl)-3-(4-fluorophenyl)-2,4-dioxo-1,2,3,4-tetrahydropyrimidine-5-carboxamide] was tested, and the IC50 (AXL) was under 100 nM, the IC50 (c-MET) was under 10 nM and the IC50 (MER) was under 10 nM.

Work on `CC(C)n1cc(C(=O)Nc2ccc(Oc3ccnc(N)c3C#Cc3ccccn3)c(F)c2)c(=O)n(-c2ccc(F)cc2)c1=O` [Example 9, N-(4-(2-amino-3-(pyridin-2-ylethnyl)pyridin-4-yloxy)-3-fluorophenyl)-3-(4-fluorophenyl)-1-isopropyl-2,4-dioxo-1,2,3,4-tetrahydropyrimidine-5-carboxamide] yielded an IC50 (AXL) of under 10 nM, an IC50 (c-MET) of under 10 nM and an IC50 (MER) of under 100 nM.

In the case of `CC(C)n1cc(C(=O)Nc2ccc(Oc3ccnc(N)c3C#CCN3CCN(C)CC3)c(F)c2)c(=O)n(-c2ccc(F)cc2)c1=O` [Example 26, N-(4-(2-amino-3-(3-(4-methylpiperazin-1-yl)prop-1-ynyl)pyridine-4-yloxy)-3-fluorophenyl)-3-(4-fluorophenyl)-1-isopropyl-2,4-dioxo-1,2,3,4-tetrahydropyrimidine-5-carboxamide], the IC50 (AXL) is reported as under 10 nM, the IC50 (c-MET) is reported as under 10 nM and the IC50 (MER) is reported as under 10 nM.

With `CC(C)n1cc(C(=O)Nc2ccc(Oc3ccnc(N)c3-c3cnn(C)c3)c(F)c2)c(=O)n(-c2ccc(F)cc2)c1=O` [Example 7] the IC50 (AXL) was under 10 nM, the IC50 (c-MET) was under 10 nM and the IC50 (MER) was under 100 nM.

Work on `Nc1nccc(Oc2ccc(NC(=O)c3c[nH]c(=O)n(-c4ccc(F)cc4)c3=O)cc2F)c1C#CCN1CCOCC1` [Example 51, N-(4-(2-amino-3-(3-morpholinoprop-1-ynyl)pyridin-4-yloxy)-3-fluorophenyl)-3-(4-fluorophenyl)-2,4-dioxo-1,2,3,4-tetrahydropyrimidine-5-carboxamide] yielded an IC50 (AXL) of under 100 nM, an IC50 (c-MET) of under 100 nM and an IC50 (MER) of under 100 nM.

For `C=CCn1cc(C(=O)Nc2ccc(Oc3ccnc(N)c3C#CC(C)(C)N3CCOCC3)c(F)c2)c(=O)n(CC=C)c1=O` [Example 70, 1,3-diallyl-N-(4-(2-amino-3-(3-methyl-3-morpholinobut-1-ynyl)pyridin-4-yloxy)-3-fluorophenyl)-2,4-dioxo-1,2,3,4-tetrahydropyrimidine-5-carboxamide], the IC50 (AXL) was under 1000 nM, the IC50 (c-MET) was under 1000 nM and the IC50 (MER) was under 10 nM.

Work on `Nc1nccc(Oc2ccc(NC(=O)c3c[nH]c(=O)n(-c4ccc(F)cc4)c3=O)cc2F)c1C#CCC1CCNCC1` [Example 53, N-(4-(2-amino-3-(3-(piperidin-4-yl)prop-1-ynyl)pyridin-4-yloxy)-3-fluorophenyl)-3-(4-fluorophenyl)-2,4-dioxo-1,2,3,4-tetrahydropyrimidine-5-carboxamide] yielded an IC50 (AXL) of under 10 nM, an IC50 (c-MET) of under 100 nM and an IC50 (MER) of under 10 nM.

`C=CCn1cc(C(=O)Nc2ccc(Oc3ccnc(N)c3C#CC(C)(C)N3CCN(C)CC3)c(F)c2)c(=O)n(CC=C)c1=O` [Example 68, 1,3-diallyl-N-(4-(2-amino-3-(3-methyl-3-(4-methylpiperazin-1-yl)but-1-ynyl)pyridin-4-yloxy)-3-fluorophenyl)-2,4-dioxo-1,2,3,4-tetrahydropyrimidine-5-carboxamide] showed an IC50 (AXL) of under 1000 nM, an IC50 (c-MET) of under 1000 nM and an IC50 (MER) of under 100 nM.

Work on `CC(C)n1cc(C(=O)Nc2ccc(Oc3ccnc(N)c3C#CC(=O)N3CCOCC3)c(F)c2)c(=O)n(-c2ccc(F)cc2)c1=O` [Example 14, N-(4-(2-amino-3-(3-morpholino-3-oxoprop-1-ynyl)pyridin-4-yloxy)-3-fluorophenyl)-3-(4-fluorophenyl)-1-isopropyl-2,4-dioxo-1,2,3,4-tetrahydropyrimidine-5-carboxamide] yielded an IC50 (AXL) of under 10 nM, an IC50 (c-MET) of under 10 nM and an IC50 (MER) of under 10 nM.

`Cn1nc(C(=O)Nc2ccc(Oc3ccnc(N)c3C#CCN3CCOCC3)c(F)c2)c(=O)n(-c2ccc(F)cc2)c1=O` [Example 49, N-(4-(2-amino-3-(3-morpholinoprop-1-ynyl)pyridin-4-yloxy)-3-fluorophenyl)-4-(4-fluorophenyl)-2-methyl-3,5-dioxo-2,3,4,5-tetrahydro-1,2,4-triazine-6-carboxamide] showed an IC50 (AXL) of under 100 nM, an IC50 (c-MET) of under 1000 nM and an IC50 (MER) of under 100 nM.

Work on `CC(C)n1cc(C(=O)Nc2ccc(Oc3ccnc(N)c3/C=C/C(=O)N3CCNCC3)c(F)c2)c(=O)n(-c2ccc(F)cc2)c1=O` [Example 3, (E)-N-(4-(2-amino-3-(3-oxo-3-(piperazin-1-yl)prop-1-enyl)pyridin-4-yloxy)-3-fluorophenyl)-3-(4-fluorophenyl)-1-isopropyl-2,4-dioxo-1,2,3,4-tetrahydropyrimidine-5-carboxamide] yielded an IC50 (AXL) of under 10 nM, an IC50 (c-MET) of under 100 nM and an IC50 (MER) of under 10 nM.

With `Nc1nccc(Oc2ccc(NC(=O)c3cn(C4CCOCC4)c(=O)n(-c4ccc(F)cc4)c3=O)cc2F)c1C#CCC1CCNCC1` [Example 59, N-(4-(2-amino-3-(3-(piperidin-4-yl)prop-1-ynyl)pyridin-4-yloxy)-3-fluorophenyl)-3-(4-fluorophenyl)-2,4-dioxo-1-(tetrahydro-2H-pyran-4-yl)-1,2,3,4-tetrahydropyrimidine-5-carboxamide] the IC50 (AXL) was under 100 nM, the IC50 (c-MET) was under 100 nM and the IC50 (MER) was under 10 nM.
